How the values were obtained:
Conditions in all cases: 48 h
NOMO1 [1] = experiment: cell viability relative to DMSO control; higher = less cytotoxic
Method in brief: (§1)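 In 1536-well plates, 5 μl of leukemia cells were seeded per well: 500 cells/well for NOMO1 or SEM and 1000 cells/well for P12-Ichikawa. Each line had first been adapted for at least four passages in each medium. Library compounds in DMSO were pin-dosed at 11 threefold concentrations between 47 μM and 0.79 nM, and CellTiter-Glo One luminescence was read after 48 h at 37°C. Viability is a per-plate percentage relative to DMSO wells, with cell-free wells as background.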

SEM cells [2] = experiment: as above
Method in brief: as §1

P12-Ichikawa [3] = experiment: AUC of viability dose-response curve (% viability x log10 dose units); higher = less sensitive
Method in brief: (§2)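 Library compounds in DMSO were applied for 48 h at 37°C at 11 threefold doses (47 μM to 0.79 nM) to medium-adapted leukemia cells in 1536-well plates holding 500 or 1000 cells/well. Luminescence from CellTiter-Glo One was normalised plate by plate against DMSO and cell-free wells. Area under the curve came from trapezoidal integration of a log-logistic fit, after scaling curves that rose above full viability and discarding those that failed quality control. The fit had four parameters and used log10 doses.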

NOMO1 [4] = experiment: as above
Method in brief: as §2

SEM cells [5] = experiment: as above
Method in brief: as §2

P12-Ichikawa [6] = experiment: cell viability relative to DMSO control; higher = less cytotoxic
Method in brief: as §1

Cc1ccc2c(c1)c1c(n2CCc2ccc(C)nc2)CCN(C)C1
cell viability [%]
Conditions | NOMO1 [1] | SEM cells [2]
HPLM + 10% dialyzed FBS, 0.000781 µM | 126 | 110
HPLM + 10% dialyzed FBS, 0.00234 µM | 115 | 124
HPLM + 10% dialyzed FBS, 0.00702 µM | 111 | 120
HPLM + 10% dialyzed FBS, 0.0211 µM | 130 | 122
HPLM + 10% dialyzed FBS, 0.0632 µM | 128 | 133
HPLM + 10% dialyzed FBS, 0.19 µM | 130 | 131
HPLM + 10% dialyzed FBS, 0.569 µM | 141 | 117
HPLM + 10% dialyzed FBS, 1.71 µM | 134 | 121
HPLM + 10% dialyzed FBS, 5.12 µM | 141 | 135
HPLM + 10% dialyzed FBS, 15.4 µM | 153 | 120
HPLM + 10% dialyzed FBS, 46.1 µM | 127 | 106
RPMI 5 mM glucose + 10% FBS, 0.000781 µM | – | 116
RPMI 5 mM glucose + 10% FBS, 0.00234 µM | – | 117
RPMI 5 mM glucose + 10% FBS, 0.00702 µM | – | 145
RPMI 5 mM glucose + 10% FBS, 0.0211 µM | – | 147
RPMI 5 mM glucose + 10% FBS, 0.0632 µM | – | 148
RPMI 5 mM glucose + 10% FBS, 0.19 µM | – | 155
RPMI 5 mM glucose + 10% FBS, 0.569 µM | – | 140
RPMI 5 mM glucose + 10% FBS, 1.71 µM | – | 127
RPMI 5 mM glucose + 10% FBS, 5.12 µM | – | 138
RPMI 5 mM glucose + 10% FBS, 15.4 µM | – | 134
RPMI 5 mM glucose + 10% FBS, 46.1 µM | – | 109

AUC of viability dose-response curve
Conditions | NOMO1 [4] | P12-Ichikawa [3] | SEM cells [5]
HPLM + 10% dialyzed FBS | 447 | 459 | 472
RPMI 5 mM glucose + 10% FBS | 458 | 465 | 471
RPMI 5 mM glucose + 10% dialyzed FBS | 472 | 469 | 474

CCOC(=O)/C=C/[C@H](C[C@@H]1CCNC1=O)NC(=O)[C@@H](CC(=O)[C@@H](NC(=O)c1cc(C)on1)C(C)C)Cc1ccc(F)cc1
cell viability [%]
Conditions | NOMO1 [1] | P12-Ichikawa [6] | SEM cells [2]
HPLM + 10% dialyzed FBS, 0.000781 µM | – | 122 | 90.8
HPLM + 10% dialyzed FBS, 0.00234 µM | – | 115 | 101
HPLM + 10% dialyzed FBS, 0.00702 µM | – | 121 | 103
HPLM + 10% dialyzed FBS, 0.0211 µM | – | 87.7 | 90.4
HPLM + 10% dialyzed FBS, 0.0632 µM | – | 130 | 111
HPLM + 10% dialyzed FBS, 0.19 µM | – | 127 | 116
HPLM + 10% dialyzed FBS, 0.569 µM | – | 126 | 110
HPLM + 10% dialyzed FBS, 1.71 µM | – | 117 | 116
HPLM + 10% dialyzed FBS, 5.12 µM | – | 121 | 115
HPLM + 10% dialyzed FBS, 15.4 µM | – | 122 | 113
HPLM + 10% dialyzed FBS, 46.1 µM | – | 117 | 105
RPMI 5 mM glucose + 10% FBS, 0.000781 µM | – | 114 | 115
RPMI 5 mM glucose + 10% FBS, 0.00234 µM | – | 122 | 121
RPMI 5 mM glucose + 10% FBS, 0.00702 µM | – | 130 | 118
RPMI 5 mM glucose + 10% FBS, 0.0211 µM | – | 76.8 | 79.8
RPMI 5 mM glucose + 10% FBS, 0.0632 µM | – | 135 | 127
RPMI 5 mM glucose + 10% FBS, 0.19 µM | – | 135 | 116
RPMI 5 mM glucose + 10% FBS, 0.569 µM | – | 134 | 123
RPMI 5 mM glucose + 10% FBS, 1.71 µM | – | 136 | 127
RPMI 5 mM glucose + 10% FBS, 5.12 µM | – | 121 | 115
RPMI 5 mM glucose + 10% FBS, 15.4 µM | – | 120 | 97.3
RPMI 5 mM glucose + 10% FBS, 46.1 µM | – | 119 | 104
RPMI 5 mM glucose + 10% dialyzed FBS, 0.000781 µM | 119 | 112 | 100
RPMI 5 mM glucose + 10% dialyzed FBS, 0.00234 µM | 124 | 106 | 120
RPMI 5 mM glucose + 10% dialyzed FBS, 0.00702 µM | 143 | 118 | 119
RPMI 5 mM glucose + 10% dialyzed FBS, 0.0211 µM | 118 | 80.2 | 82.5
RPMI 5 mM glucose + 10% dialyzed FBS, 0.0632 µM | 132 | 111 | 136
RPMI 5 mM glucose + 10% dialyzed FBS, 0.19 µM | 118 | 119 | 133
RPMI 5 mM glucose + 10% dialyzed FBS, 0.569 µM | 130 | 115 | 128
RPMI 5 mM glucose + 10% dialyzed FBS, 1.71 µM | 131 | 128 | 127
RPMI 5 mM glucose + 10% dialyzed FBS, 5.12 µM | 144 | 119 | 129
RPMI 5 mM glucose + 10% dialyzed FBS, 15.4 µM | 155 | 124 | 132
RPMI 5 mM glucose + 10% dialyzed FBS, 46.1 µM | 125 | 118 | 108

AUC of viability dose-response curve
Conditions | NOMO1 [4] | P12-Ichikawa [3] | SEM cells [5]
HPLM + 10% dialyzed FBS | 471 | 466 | 452
RPMI 5 mM glucose + 10% FBS | 469 | 459 | 463
RPMI 5 mM glucose + 10% dialyzed FBS | 440 | 450 | 454

O=C(/C=C/c1ccc(O)cc1)c1ccc(O)cc1O
cell viability [%]
Conditions | NOMO1 [1] | P12-Ichikawa [6] | SEM cells [2]
HPLM + 10% dialyzed FBS, 0.000781 µM | 138 | 108 | 113
HPLM + 10% dialyzed FBS, 0.00234 µM | 116 | 98.4 | 112
HPLM + 10% dialyzed FBS, 0.00702 µM | 117 | 95 | 131
HPLM + 10% dialyzed FBS, 0.0211 µM | 110 | 109 | 108
HPLM + 10% dialyzed FBS, 0.0632 µM | 104 | 106 | 141
HPLM + 10% dialyzed FBS, 0.19 µM | 126 | 104 | 131
HPLM + 10% dialyzed FBS, 0.569 µM | 128 | 103 | 120
HPLM + 10% dialyzed FBS, 1.71 µM | 97.2 | 95.9 | 109
HPLM + 10% dialyzed FBS, 5.12 µM | 106 | 99.6 | 124
HPLM + 10% dialyzed FBS, 15.4 µM | 82.4 | 87.8 | 81.2
HPLM + 10% dialyzed FBS, 46.1 µM | 46.8 | 43.1 | 26.6
RPMI 5 mM glucose + 10% FBS, 0.000781 µM | 112 | 108 | 118
RPMI 5 mM glucose + 10% FBS, 0.00234 µM | 105 | 103 | 122
RPMI 5 mM glucose + 10% FBS, 0.00702 µM | 101 | 110 | 134
RPMI 5 mM glucose + 10% FBS, 0.0211 µM | 109 | 105 | 125
RPMI 5 mM glucose + 10% FBS, 0.0632 µM | 113 | 111 | 124
RPMI 5 mM glucose + 10% FBS, 0.19 µM | 110 | 108 | 133
RPMI 5 mM glucose + 10% FBS, 0.569 µM | 119 | 98.3 | 106
RPMI 5 mM glucose + 10% FBS, 1.71 µM | 98.8 | 98.5 | 116
RPMI 5 mM glucose + 10% FBS, 5.12 µM | 103 | 107 | 111
RPMI 5 mM glucose + 10% FBS, 15.4 µM | 96.1 | 65.9 | 79.6
RPMI 5 mM glucose + 10% FBS, 46.1 µM | 86.6 | 11.7 | 17
RPMI 5 mM glucose + 10% dialyzed FBS, 0.000781 µM | 120 | 105 | 98
RPMI 5 mM glucose + 10% dialyzed FBS, 0.00234 µM | 103 | 101 | 94.4
RPMI 5 mM glucose + 10% dialyzed FBS, 0.00702 µM | 109 | 109 | 118
RPMI 5 mM glucose + 10% dialyzed FBS, 0.0211 µM | 106 | 106 | 91.9
RPMI 5 mM glucose + 10% dialyzed FBS, 0.0632 µM | 107 | 119 | 121
RPMI 5 mM glucose + 10% dialyzed FBS, 0.19 µM | 110 | 113 | 105
RPMI 5 mM glucose + 10% dialyzed FBS, 0.569 µM | 110 | 104 | 100
RPMI 5 mM glucose + 10% dialyzed FBS, 1.71 µM | 88.4 | 97.3 | 91
RPMI 5 mM glucose + 10% dialyzed FBS, 5.12 µM | 102 | 95.5 | 81.8
RPMI 5 mM glucose + 10% dialyzed FBS, 15.4 µM | 109 | 41.8 | 59.5
RPMI 5 mM glucose + 10% dialyzed FBS, 46.1 µM | 70.2 | 9.51 | 9.38

AUC of viability dose-response curve
Conditions | NOMO1 [4] | P12-Ichikawa [3] | SEM cells [5]
HPLM + 10% dialyzed FBS | 437 | 454 | 443
RPMI 5 mM glucose + 10% FBS | 460 | 438 | 433
RPMI 5 mM glucose + 10% dialyzed FBS | 452 | 420 | 417

— the supplement of paper PMC11451515
